Patent publication US10722484B2, “Methods of cancer treatment” (K-Gen, Inc., priority 2016, dated 2020)
“Also recorded” adds a separate entry of the source. Like-named read-outs stand apart in the source and are kept apart here.

Key:
[1] = system: A549 lung cancer cell line; assay: Combination viability/proliferation assays (384-well IC50 ratio, 96-well MacSynergy II); assay type: cell-based; conditions: for Combination in A549: K101A (synergism/antagonism): agent assayed in combination with K101A; for Combination in A549: K101A (synergism/antagonism) / Combination in A549: K102 (synergism/antagonism): * 2-3 concentrations, # full concentration ranges; for Combination in A549: K102 (synergism/antagonism): agent assayed in combination with K102; for Combination in A549: K101A (synergism/antagonism) / Combination in A549: K102 (synergism/antagonism) / Ratio ([…] DMSO IC50/combination IC50) / Combination in A549: K101E (synergism/antagonism) / concentration range in which the antagonistic effect was detected: A549; for Ratio ([…] DMSO IC50/combination IC50): NC: no change; for effect in combination with the PKC activator compounds in inhibiting the growth of A549 cells: PKC activator compounds (K101A, K101E, K102); for Combination in A549: K101E (synergism/antagonism): agent assayed in combination with K101E; for concentration range in which the antagonistic effect was detected: with PKC activator compounds (FIG. 10A, 10B), trametinib full range tested, erlotinib lower half of range tested
Procedure: A 96-well MacSynergy II format for combination test was also used. […] The analysis was done with the SQRT(Data) scale and the four parameter Hill curve was fitted using XLfit5.1 (the MacSynergy II Excel Spreadsheet) for the inhibition data. Synergy (positive number) or Antagonism (negative number) volumes were calculated. […] Three-dimensional MacSynergy II graphs were generated where positive values indicated synergism and negative values indicated antagonism.

MiaPaCa-2 = assay: Proliferation assay (CellTiter Glo); assay type: cell-based; conditions: 96 hours
THP1 = assay: Proliferation assay (CellTiter Glo); assay type: cell-based, human; conditions: 96 hours
Procedure: (§1) The dose range for most compounds was 4.6 nM-30 μM. The dose ranges for some compounds were adjusted downward to 0.46 nM-3 μM or 0.08 nM-0.5 μM or 0.03 nM-0.2 μM. […] The results are shown in Tables 3-6 for pancreatic cancer, lung cancer, colon/gastric cancer, and leukemia.

HL60 = assay: Proliferation assay (CellTiter Glo); assay type: cell-based, human; conditions: 96 hours
Procedure: as §1

H838 = assay: Proliferation assay (CellTiter Glo); assay type: cell-based; conditions: H838 (RAS WT); 96 hours
Procedure: as §1
(§2) Other cancer cell lines having wild-type K-RAS status and K-RAS mutation at G12 were also screened using the PKC activator compounds. […] K104 was tested in a range of 0.03 nM-0.2 μM. […] The dose ranges were adjusted downward to 0.46 nM-3 μM for K102 and 0.08 nM-0.5 μM for K103 for some cell lines. The results of the screening of cancer cells lines with wild-type K-RAS status and K-RAS mutations at the G12 positions are presented in Table 7.

HT29 = assay: Proliferation assay (CellTiter Glo); assay type: cell-based; conditions: HT29 (RAS WT); 96 hours
Procedure: as §1, §2

H1915 = assay: Proliferation assay (CellTiter Glo); assay type: cell-based; conditions: H1915 (RAS WT); 96 hours
Procedure: as §1, §2

Colo205 = assay: Proliferation assay (CellTiter Glo); assay type: cell-based; conditions: Colo205 (RAS WT); 96 hours
Procedure: as §1, §2

BxPC-3 = assay: Proliferation assay (CellTiter Glo); assay type: cell-based; conditions: BxPC-3 (RAS WT); 96 hours
Procedure: as §1, §2

H358 = assay: Proliferation assay (CellTiter Glo); assay type: cell-based; conditions: HE58, 96 hours
Procedure: as §1

H441 = assay: Proliferation assay (CellTiter Glo); assay type: cell-based; conditions: 96 hours
Procedure: as §1

KP-4 = assay: Proliferation assay (CellTiter Glo); assay type: cell-based; conditions: 96 hours
Procedure: as §1

AGS = assay: Proliferation assay (CellTiter Glo); assay type: cell-based; conditions: 96 hours
Procedure: as §1

HCT116 = assay: Proliferation assay (CellTiter Glo); assay type: cell-based; conditions: 96 hours
Procedure: as §1

SW620 = assay: Proliferation assay (CellTiter Glo); assay type: cell-based; conditions: 96 hours
Procedure: as §1

H727 = assay: Proliferation assay (CellTiter Glo); assay type: cell-based; conditions: 96 hours
Procedure: as §1

Capan-1 = assay: Proliferation assay (CellTiter Glo); assay type: cell-based; conditions: 96 hours
Procedure: as §1

LS180 = assay: Proliferation assay (CellTiter Glo); assay type: cell-based; conditions: 96 hours
Procedure: as §1

A549 = assay: Proliferation assay (CellTiter Glo); assay type: cell-based; conditions: 96 hours
Procedure: as §1

[2] = in combination with 0.0002 μM K102
[3] = in combination with 0.002 μM K102
[4] = in combination with 0.005 μM K101A
[5] = in combination with 0.02 μM K102
[6] = in combination with 0.05 μM K101A
[7] = in combination with 0.5 μM K101A, ratio >2 synergistic, <0.5 antagonistic

Cc1cc(-c2ncc(CC(=O)Nc3ccc(-c4cnccn4)cn3)cc2C)ccn1 [LGK-974, 2-[5-methyl-6-(2-methylpyridin-4-yl)pyridin-3-yl]-N-(5-pyrazin-2-ylpyridin-2-yl)acetamide]
Combination in A549: K101A (synergism/antagonism) [1]: Synergism (minor)
Combination in A549: K102 (synergism/antagonism) [1]: Synergism (minor)

Nc1cc(C(F)(F)F)c(-c2cc(N3CCOCC3)nc(N3CCOCC3)n2)cn1 [BKM-120, 5-[2,6-Di(4-morpholinyl)-4-pyrimidinyl]-4-(trifluoromethyl)-2-pyridinamine]
Ratio ([…] DMSO IC50/combination IC50) [1, 2]: 0.86
Ratio ([…] DMSO IC50/combination IC50) [1, 3]: 1.24
Ratio ([…] DMSO IC50/combination IC50) [1, 4]: 0.94
Ratio ([…] DMSO IC50/combination IC50) [1, 5]: 2.36
Ratio ([…] DMSO IC50/combination IC50) [1, 6]: 1.21
Ratio ([…] DMSO IC50/combination IC50) [1, 7]: 2.43
effect in combination with the PKC activator compounds in inhibiting the growth of A549 cells [1]: strong synergy
Combination in A549: K101A (synergism/antagonism) [1]: Synergism (strong)
Combination in A549: K101E (synergism/antagonism) [1]: None
Combination in A549: K102 (synergism/antagonism) [1]: Synergism (moderate)

CC(=O)OC12CC(C)C3(O)C(C4OC4(CO)CC4(O)C(O)C(C)=CC43)C1C2(C)C (centres unmarked) [Compound K101D]
EC50 (MiaPaCa-2; MiaPaCa-2 (K-RAS: G12C), absolute EC50, read-out: Ab EC50): > 30 µM
Top Inhibition % (MiaPaCa-2; MiaPaCa-2, % of top inhibition): 18.6%
EC50 (THP1; THP1 (N-RAS: G12D), absolute EC50, read-out: Ab EC50): > 30 µM
Top Inhibition % (THP1; THP1, % of top inhibition): 33.6%
EC50 (THP1; THP1, relative EC50, read-out: Re EC50): 14 µM
EC50 (HL60; HL60 (N-RAS: Q61L), absolute EC50, read-out: Ab EC50): > 30 µM
Top Inhibition % (HL60; HL60, % of top inhibition): 14.4%
Top Inhibition % (H838): 27.7%
Top Inhibition % (HT29): 10.0%
Top Inhibition % (H1915): 28.6%
Top Inhibition % (Colo205): 42.3%
Top Inhibition % (BxPC-3): 37.49%
Top Inhibition % (H358; % of top inhibition): 23.0%
EC50 (H358; absolute EC50, read-out: Ab EC50): > 30 µM
EC50 (H358; relative EC50, read-out: Re EC50): 11 µM
EC50 (H441; H441 (K-RAS: G12V), absolute EC50, read-out: Ab EC50): > 30 µM
Top Inhibition % (H441; H441, % of top inhibition): 11.6%
EC50 (KP-4; KP-4 (K-RAS: G12C), absolute EC50, read-out: Ab EC50): > 30 µM
Top Inhibition % (KP-4; KP-4, % of top inhibition): 47.9%
EC50 (KP-4; KP-4, relative EC50, read-out: Re EC50): 5.47 µM
EC50 (AGS; AGS (gastric, K-RAS: G12D), absolute EC50, read-out: Ab EC50): > 30 µM
Top Inhibition % (AGS; AGS, % of top inhibition): 13.5%
EC50 (HCT116; HCT116 (K-RAS: G13D), absolute EC50, read-out: Ab EC50): > 30 µM
Top Inhibition % (HCT116; HCT116, % of top inhibition): 3.0%
EC50 (SW620; SW620 (K-RAS: G12V), absolute EC50, read-out: Ab EC50): > 30 µM
Top Inhibition % (SW620; SW620, % of top inhibition): 0.0%
EC50 (H727; H727 (K-RAS: G12V), absolute EC50, read-out: Ab EC50): > 30 µM
Top Inhibition % (H727; H727, % of top inhibition): 31.8%
EC50 (H727; H727, relative EC50, read-out: Re EC50): 8.37 µM
EC50 (Capan-1; Capan-1 (K-RAS: G12V), absolute EC50, read-out: Ab EC50): > 30 µM
Top Inhibition % (Capan-1; Capan-1, % of top inhibition): 22.3%
EC50 (Capan-1; Capan-1, relative EC50, read-out: Re EC50): 8.66 µM
EC50 (LS180; LS180 (K-RAS: G12D), absolute EC50, read-out: Ab EC50): > 30 µM
Top Inhibition % (LS180; LS180, % of top inhibition): 8.2%
EC50 (A549; A549 (K-RAS: G12S), absolute EC50, read-out: Ab EC50): > 30 µM
Top Inhibition % (A549; A549, % of top inhibition): 44.4%
EC50 (A549; A549, relative EC50, read-out: Re EC50): 7.72 µM

CO[C@H]1C[C@@H]2CC[C@@H](C)[C@@](O)(O2)C(=O)C(=O)N2CCCC[C@H]2C(=O)O[C@H]([C@H](C)C[C@@H]2CC[C@@H](OCCO)[C@H](OC)C2)CC(=O)[C@H](C)/C=C(\C)[C@@H](O)[C@@H](OC)C(=O)[C@H](C)C[C@H](C)/C=C/C=C/C=C/1C [Everolimus]
Ratio ([…] DMSO IC50/combination IC50) [1, 3]: >2
Ratio ([…] DMSO IC50/combination IC50) [1, 5]: >2
Ratio ([…] DMSO IC50/combination IC50) [1, 6]: >2
Ratio ([…] DMSO IC50/combination IC50) [1, 7]: >2
Ratio ([…] DMSO IC50/combination IC50) ([1]; in combination with […] K101E): >2
effect in combination with the PKC activator compounds in inhibiting the growth of A549 cells [1]: strong synergy
Combination in A549: K101A (synergism/antagonism) [1]: Synergism
Combination in A549: K101E (synergism/antagonism) [1]: Synergism.
Combination in A549: K102 (synergism/antagonism) [1]: Synergism

CS(=O)(=O)CCNCc1ccc(-c2ccc3ncnc(Nc4ccc(OCc5cccc(F)c5)c(Cl)c4)c3c2)o1 [Lapatinib]
effect in combination with the PKC activator compounds in inhibiting the growth of A549 cells [1]: no or insignificant antagonistic effect; also recorded: insignificant synergism or antagonism

CN[C@@H]1C[C@H]2O[C@@](C)([C@@H]1OC)n1c3ccccc3c3c4c(c5c6ccccc6n2c5c31)C(=O)NC4 [STS, staurosporine]
effect in combination with the PKC activator compounds in inhibiting the growth of A549 cells [1]: synergistic effects
Combination in A549: K101A (synergism/antagonism) [1]: Synergism
Combination in A549: K101E (synergism/antagonism) [1]: Synergism
Combination in A549: K102 (synergism/antagonism) [1]: Synergism

O=C1[O][Pt]2([NH][C@@H]3CCCC[C@H]3[NH]2)[O]C1=O [Oxaliplatin]
effect in combination with K101A or K102 in inhibiting the growth of A549 cells [1]: synergy

CC(C)C[C@H](NC(=O)[C@H](CCc1ccccc1)NC(=O)CN1CCOCC1)C(=O)N[C@@H](Cc1ccccc1)C(=O)N[C@@H](CC(C)C)C(=O)[C@@]1(C)CO1 [Carfilzomib]
effect in combination with the PKC activator compounds in inhibiting the growth of A549 cells [1]: insignificant synergism or antagonism
Combination in A549: K101A (synergism/antagonism) [1]: None
Combination in A549: K102 (synergism/antagonism) [1]: None

CC(=O)Nc1cccc(-n2c(=O)n(C3CC3)c(=O)c3c(Nc4ccc(I)cc4F)n(C)c(=O)c(C)c32)c1 [Trametinib]
Ratio ([…] DMSO IC50/combination IC50) [1, 2]: 0.72
Ratio ([…] DMSO IC50/combination IC50) [1, 3]: 0.80
Ratio ([…] DMSO IC50/combination IC50) [1, 4]: 1.36
Ratio ([…] DMSO IC50/combination IC50) [1, 5]: 0.44
Ratio ([…] DMSO IC50/combination IC50) [1, 6]: 1.10
Ratio ([…] DMSO IC50/combination IC50) [1, 7]: 0.50
concentration range in which the antagonistic effect was detected [1]: 0.003 to 0.2 µM

Nc1ccn([C@@H]2O[C@H](CO)[C@@H](O)C2(F)F)c(=O)n1 [Gemcitabine]
Ratio ([…] DMSO IC50/combination IC50) [1, 2]: 0.72
Ratio ([…] DMSO IC50/combination IC50) [1, 3]: 0.76
Ratio ([…] DMSO IC50/combination IC50) [1, 4]: 0.80
Ratio ([…] DMSO IC50/combination IC50) [1, 5]: 0.69
Ratio ([…] DMSO IC50/combination IC50) [1, 6]: 0.91
Ratio ([…] DMSO IC50/combination IC50) [1, 7]: 0.97
effect in combination with the PKC activator compounds in inhibiting the growth of A549 cells [1]: insignificant synergism or antagonism
Combination in A549: K101A (synergism/antagonism) [1]: None
Combination in A549: K101E (synergism/antagonism) [1]: None
Combination in A549: K102 (synergism/antagonism) [1]: None

C#Cc1cccc(Nc2ncnc3cc(OCCOC)c(OCCOC)cc23)c1 [Erlotinib]
concentration range in which the antagonistic effect was detected [1]: 0.3 to 2.5 µM
effect in combination with the PKC activator compounds in inhibiting the growth of A549 cells [1]: Moderate antagonistic effect
